{"source": "patent US8114843B2", "about": "“Photoreactive regulator of protein function and methods of use thereof” (The Regents of the University of California, priority 2005, dated 2012)", "test_in_all_cases": "PAL photoswitching, whole-cell patch clamp in HEK cells", "assay_type_in_all_cases": "cell-based", "key": {"Kv3.3": {"target": "T1, Kv3.3 (Homo sapiens, UniProt Q14003)", "T1 construct": "expressed in transfected cells; host or cells: HEK cells", "T1 sequence (Q14003 1-757)": "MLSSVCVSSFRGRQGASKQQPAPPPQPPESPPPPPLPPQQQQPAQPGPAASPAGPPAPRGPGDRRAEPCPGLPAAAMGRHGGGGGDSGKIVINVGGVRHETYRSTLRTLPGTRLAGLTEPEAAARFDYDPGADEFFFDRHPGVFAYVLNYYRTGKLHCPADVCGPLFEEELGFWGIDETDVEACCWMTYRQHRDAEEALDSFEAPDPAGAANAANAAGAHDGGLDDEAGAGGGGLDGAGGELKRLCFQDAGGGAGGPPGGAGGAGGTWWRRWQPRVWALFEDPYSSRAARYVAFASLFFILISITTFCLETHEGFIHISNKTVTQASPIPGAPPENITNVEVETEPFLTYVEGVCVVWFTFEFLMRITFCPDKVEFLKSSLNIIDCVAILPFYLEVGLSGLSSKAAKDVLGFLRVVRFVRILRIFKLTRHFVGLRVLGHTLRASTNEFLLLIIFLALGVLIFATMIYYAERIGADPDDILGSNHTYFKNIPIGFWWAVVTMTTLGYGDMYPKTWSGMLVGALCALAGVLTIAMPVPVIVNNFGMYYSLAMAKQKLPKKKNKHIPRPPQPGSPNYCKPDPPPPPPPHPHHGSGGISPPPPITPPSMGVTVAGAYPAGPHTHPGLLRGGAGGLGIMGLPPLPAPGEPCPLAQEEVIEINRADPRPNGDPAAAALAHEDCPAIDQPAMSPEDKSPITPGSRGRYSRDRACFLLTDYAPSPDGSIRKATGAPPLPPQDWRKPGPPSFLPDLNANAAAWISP", "protocol": "(§1) Cell culture and transfection. HEK293 cells were grown in DMEM containing 5% fetal bovine serum, at 37° C., 7% CO2. For electrophysiology, cells were plated at 12×10^5 cells/cm^2 on poly-L-lysine coated coverslips and transfected using the calcium phosphate method. Recordings were performed 24-36 hours after transfection.\n(§2) PAL attachment. HEK293 and hippocampal cells were rinsed in extracellular solution containing in mM: 138 NaCl, 1.5 KCl, 1.2 MgCl2, 2.5 CaCl2, 5 HEPES, 10 glucose and incubated at 37° C. in the dark with 200-250 μM PAL for 15 minutes. For slices, AAQ was diluted to 200 μM in aCSF and treatment was performed in the dark at room temperature for 10 minutes.\n(§3) Electrophysiological recording. Recordings from HEK293 and hippocampal neurons were made in the whole-cell patch clamp configuration using a PC-501A amplifier (Warner Instruments). Pulse protocols and measurements were carried out with pCLAMP and a Digidata 1322 interface (Axon Instruments). For voltage-clamp experiment, cells were held at −70 mV. Data was recorded at 20 kHz and filtered at 2 kHz. Recording pipettes with 2.5-4 MΩ resistance were filled with intracellular solution containing in mM: 10 NaCl, 135 K-gluconate, 10 HEPES, 2 MgCl2, 2 MgATP, 1 EGTA, pH 7.4.\n(§4) Illumination was provided using a xenon lamp (Sutter Instruments) with narrow band pass filters (380 BP10 for UV and 500 BP5 for visible light respectively). Excitation filters were changed using a lambda 10-2 filter changer (Sutter Instruments) controlled via pCLAMP software.\n(§5) Percent photoswitching was defined as the difference between current in UV and visible light divided by current in UV. All data shown in bar graphs are averages±standard error of the mean."}, "Kv1.2": {"target": "T2, Kv1.2 (Homo sapiens, UniProt P16389)", "T2 construct": "expressed in transfected cells; host or cells: HEK cells", "T2 sequence (P16389 whole entry)": "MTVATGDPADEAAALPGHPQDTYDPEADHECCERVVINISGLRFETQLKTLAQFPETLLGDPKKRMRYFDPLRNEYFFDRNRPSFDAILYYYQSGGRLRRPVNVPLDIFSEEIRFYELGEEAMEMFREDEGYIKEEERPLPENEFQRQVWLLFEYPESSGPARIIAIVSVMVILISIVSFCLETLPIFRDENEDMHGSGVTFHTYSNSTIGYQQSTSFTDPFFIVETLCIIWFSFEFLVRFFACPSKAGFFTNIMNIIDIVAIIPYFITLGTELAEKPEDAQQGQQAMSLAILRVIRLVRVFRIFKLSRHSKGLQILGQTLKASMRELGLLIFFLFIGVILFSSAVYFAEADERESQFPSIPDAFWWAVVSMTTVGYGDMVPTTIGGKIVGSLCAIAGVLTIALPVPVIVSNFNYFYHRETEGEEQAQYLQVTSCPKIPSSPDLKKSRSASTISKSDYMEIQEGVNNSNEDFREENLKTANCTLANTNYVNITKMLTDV", "protocol": "as §1, §2, §3, §4, §5"}, "Kv3.1": {"target": "T3, Kv3.1 (Homo sapiens, UniProt P48547)", "T3 construct": "expressed in transfected cells; host or cells: HEK cells", "T3 sequence (P48547 1-511)": "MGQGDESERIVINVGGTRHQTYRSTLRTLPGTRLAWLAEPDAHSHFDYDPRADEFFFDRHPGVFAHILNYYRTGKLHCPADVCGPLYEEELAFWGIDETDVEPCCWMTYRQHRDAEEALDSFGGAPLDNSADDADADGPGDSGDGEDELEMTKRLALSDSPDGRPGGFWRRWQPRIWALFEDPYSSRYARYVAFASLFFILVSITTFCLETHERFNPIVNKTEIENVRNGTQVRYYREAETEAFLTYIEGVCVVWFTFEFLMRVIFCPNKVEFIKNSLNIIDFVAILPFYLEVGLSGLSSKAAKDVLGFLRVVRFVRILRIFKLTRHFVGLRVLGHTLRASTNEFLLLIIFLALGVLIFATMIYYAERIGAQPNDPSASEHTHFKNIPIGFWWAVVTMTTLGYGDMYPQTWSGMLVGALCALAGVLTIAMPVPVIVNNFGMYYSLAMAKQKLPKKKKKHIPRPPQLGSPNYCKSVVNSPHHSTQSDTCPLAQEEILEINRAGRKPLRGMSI", "protocol": "as §1, §2, §3, §4, §5"}, "Kv2.1": {"target": "T4, Kv2.1 (Homo sapiens, UniProt Q14721)", "T4 construct": "expressed in transfected cells; host or cells: HEK cells", "T4 sequence (Q14721 1-858)": "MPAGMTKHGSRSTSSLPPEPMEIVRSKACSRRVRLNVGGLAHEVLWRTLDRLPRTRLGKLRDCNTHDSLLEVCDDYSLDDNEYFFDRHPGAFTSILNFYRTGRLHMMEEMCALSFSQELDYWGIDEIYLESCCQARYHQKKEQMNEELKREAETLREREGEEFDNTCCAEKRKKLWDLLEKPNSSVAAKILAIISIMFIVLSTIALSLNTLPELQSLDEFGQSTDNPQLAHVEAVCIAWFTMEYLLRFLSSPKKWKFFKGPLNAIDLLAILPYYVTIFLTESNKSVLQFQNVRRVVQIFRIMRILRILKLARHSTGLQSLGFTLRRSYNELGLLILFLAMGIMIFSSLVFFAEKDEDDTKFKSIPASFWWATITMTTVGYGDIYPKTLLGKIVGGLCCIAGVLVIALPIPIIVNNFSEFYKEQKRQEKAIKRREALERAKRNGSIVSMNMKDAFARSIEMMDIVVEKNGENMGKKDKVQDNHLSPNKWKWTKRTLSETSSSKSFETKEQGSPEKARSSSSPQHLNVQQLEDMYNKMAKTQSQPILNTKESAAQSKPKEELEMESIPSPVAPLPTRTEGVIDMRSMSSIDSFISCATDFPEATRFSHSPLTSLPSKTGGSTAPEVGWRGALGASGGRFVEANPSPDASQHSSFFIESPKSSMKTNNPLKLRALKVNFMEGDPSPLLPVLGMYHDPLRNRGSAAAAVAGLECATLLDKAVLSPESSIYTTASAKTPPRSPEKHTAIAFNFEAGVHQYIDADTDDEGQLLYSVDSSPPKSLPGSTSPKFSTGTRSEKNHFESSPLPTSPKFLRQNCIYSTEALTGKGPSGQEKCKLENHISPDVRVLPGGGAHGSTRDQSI", "protocol": "as §1, §2, §3, §4, §5"}, "Kv1.4": {"target": "T5, Kv1.4 (Homo sapiens, UniProt P22459)", "T5 construct": "expressed in transfected cells; host or cells: HEK cells", "T5 sequence (P22459 whole entry)": "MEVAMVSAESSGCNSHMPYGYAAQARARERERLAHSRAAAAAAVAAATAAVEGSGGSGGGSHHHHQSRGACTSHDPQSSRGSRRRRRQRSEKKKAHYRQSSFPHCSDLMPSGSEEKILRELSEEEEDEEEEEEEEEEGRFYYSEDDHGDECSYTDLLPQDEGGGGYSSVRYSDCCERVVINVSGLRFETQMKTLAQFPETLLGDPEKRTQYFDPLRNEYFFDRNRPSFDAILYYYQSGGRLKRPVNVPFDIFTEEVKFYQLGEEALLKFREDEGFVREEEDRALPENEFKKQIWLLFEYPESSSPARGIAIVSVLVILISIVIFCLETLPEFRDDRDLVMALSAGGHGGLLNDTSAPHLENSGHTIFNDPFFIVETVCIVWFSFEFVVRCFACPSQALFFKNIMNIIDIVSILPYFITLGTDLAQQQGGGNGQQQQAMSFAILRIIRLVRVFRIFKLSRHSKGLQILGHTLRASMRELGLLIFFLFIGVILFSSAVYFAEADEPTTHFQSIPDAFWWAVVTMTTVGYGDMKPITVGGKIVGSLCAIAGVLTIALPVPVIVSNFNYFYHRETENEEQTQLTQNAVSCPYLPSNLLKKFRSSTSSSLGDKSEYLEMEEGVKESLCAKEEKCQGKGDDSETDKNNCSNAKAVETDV", "details": "n=6", "protocol": "as §1, §2, §3, §4, §5"}}, "data": [{"molecule": "C=CC(=O)Nc1ccc(/N=N/c2ccc(NC(=O)C[N+](CC)(CC)CC)cc2)cc1", "note": "[AAQ]", "values": [{"measurement": "light-sensitivity imparted on channel", "setting": "Kv3.3", "result": "imparted light-sensitivity"}, {"measurement": "light-sensitivity imparted on channel", "setting": "Kv1.2", "result": "imparted light-sensitivity"}, {"measurement": "light-sensitivity imparted on channel", "setting": "Kv3.1", "result": "imparted light-sensitivity"}, {"measurement": "light-sensitivity imparted on channel", "setting": "Kv2.1", "result": "imparted light-sensitivity"}, {"measurement": "current turned on and off by light", "setting": "Kv1.4", "result": "~80", "unit": "%"}]}]}
